This passage reports IC50 results from patent US20240360165A1, “INHIBITORS OF CYCLIN DEPENDENT KINASE 7 (CDK7)” (Syros Pharmaceuticals, Inc., priority 2016, published 2024).

Read-outs that look alike come from different tables or passages of the source.

The subject of assay [1] is A673 cells. Nature of the assay: Inhibition of proliferation of A673 cells (CyQUANT, 72 hour). It is filed as cell-based, human. The conditions noted are these: A673 cells, 72 hour, CyQUANT, read-out: Inhibition of Proliferation of A673 Cells (calculated IC50). The gist of the method: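 Proliferation read-out by CyQUANT after a 72 h exposure, compounds spanning 4 μM–[…] in half-log steps. A673 cells cultured at 37° C under 5% CO2 in DMEM supplemented with 10% FBS plus 1 mM sodium pyruvate.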

Assay [2] concerns the target T1, CDK12 (aa686-1082)/Cyclin K complex (Homo sapiens, UniProt Q9NYV4).
T1 construct: CDK12 (aa686-1082)/Cyclin K complex
Nature of the assay: CDK12 inhibition assay (Caliper/LabChip EZ Reader kinase assay). The conditions noted are these: Table 1; CDK12 (aa686-1082)/Cyclin K 50 nM, ATP 2 mM, 3 hr at 27° C. The format is biochemical.

For assay [3], the target named is CDK9/Cyclin T1 complex (Homo sapiens, UniProt P50750). Nature of the assay: CDK9 inhibition assay (Caliper/LabChip EZ Reader kinase assay). It is filed as biochemical. The conditions noted are these: Table 1; CDK9/Cyclin T1 8 nM, ATP 2 mM, 15 min at 27° C. The gist of the method: (§1)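 Activity read as fluorescent peptide conversion on a LabChip EZ Reader. For CDK2/Cyclin E1 (0.5 nM), substrate was 5-FAM-CDK7tide (2 μM) with 2 mM MgCl2; for CDK9/Cyclin T1 (8 nM), 5-FAM-CDK9tide (2 μM) with 10 mM MgCl2.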
Chain of CDK9/Cyclin T1 complex (P50750 whole entry, species assumed): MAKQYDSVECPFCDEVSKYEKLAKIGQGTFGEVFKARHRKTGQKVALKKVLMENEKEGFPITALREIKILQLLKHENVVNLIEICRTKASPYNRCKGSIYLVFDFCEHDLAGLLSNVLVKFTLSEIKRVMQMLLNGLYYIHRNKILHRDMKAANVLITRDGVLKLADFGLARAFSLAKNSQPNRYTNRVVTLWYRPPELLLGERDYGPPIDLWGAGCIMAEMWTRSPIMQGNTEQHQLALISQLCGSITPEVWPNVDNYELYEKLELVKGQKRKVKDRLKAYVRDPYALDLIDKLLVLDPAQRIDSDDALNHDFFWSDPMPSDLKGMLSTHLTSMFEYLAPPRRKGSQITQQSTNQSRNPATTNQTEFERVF
Chain of CDK9/Cyclin T1 complex (O60563 whole entry partner, species assumed): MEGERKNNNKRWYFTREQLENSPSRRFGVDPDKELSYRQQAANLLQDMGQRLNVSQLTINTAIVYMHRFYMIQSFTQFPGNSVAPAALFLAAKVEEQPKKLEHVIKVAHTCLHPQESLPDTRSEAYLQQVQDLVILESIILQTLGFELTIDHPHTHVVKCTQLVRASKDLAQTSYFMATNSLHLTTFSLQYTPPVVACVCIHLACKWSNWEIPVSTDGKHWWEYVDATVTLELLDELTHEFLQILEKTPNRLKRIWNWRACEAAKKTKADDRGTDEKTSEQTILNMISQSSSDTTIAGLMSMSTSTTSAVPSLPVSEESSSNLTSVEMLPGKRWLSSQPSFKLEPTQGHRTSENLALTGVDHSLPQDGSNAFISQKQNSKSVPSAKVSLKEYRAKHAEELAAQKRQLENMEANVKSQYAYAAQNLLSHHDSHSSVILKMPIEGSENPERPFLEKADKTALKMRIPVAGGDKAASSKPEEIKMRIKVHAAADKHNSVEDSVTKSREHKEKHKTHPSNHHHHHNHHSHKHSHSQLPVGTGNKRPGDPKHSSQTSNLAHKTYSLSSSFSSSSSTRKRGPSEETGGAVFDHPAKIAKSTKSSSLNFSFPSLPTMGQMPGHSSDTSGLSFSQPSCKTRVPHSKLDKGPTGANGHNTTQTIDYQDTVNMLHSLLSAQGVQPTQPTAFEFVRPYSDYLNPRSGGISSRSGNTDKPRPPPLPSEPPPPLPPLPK

For assay [4], the target named is CDK7/Cyclin H/MAT1 complex (Homo sapiens, UniProt P50613). Nature of the assay: CDK7 inhibition assay (Caliper/LabChip EZ Reader kinase assay). The format is biochemical. The conditions noted are these: Table 1; CDK7/Cyclin H/MAT1 6 nM, ATP 2 mM, 35 min at 27° C. The gist of the method: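 A Perkin Elmer Caliper/LabChip EZ Reader (Waltham, MA) platform served as the basis for this CDK7 kinase inhibition assay. The work was carried out by Biortus Biosciences, located in Jiangyin, Jiangsu Province, P.R. of China. Each CDK studied had its own kinase assay, and compounds were evaluated for their ability to block CDK7 activity.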
Chain of CDK7/Cyclin H/MAT1 complex (P50613 whole entry, species assumed): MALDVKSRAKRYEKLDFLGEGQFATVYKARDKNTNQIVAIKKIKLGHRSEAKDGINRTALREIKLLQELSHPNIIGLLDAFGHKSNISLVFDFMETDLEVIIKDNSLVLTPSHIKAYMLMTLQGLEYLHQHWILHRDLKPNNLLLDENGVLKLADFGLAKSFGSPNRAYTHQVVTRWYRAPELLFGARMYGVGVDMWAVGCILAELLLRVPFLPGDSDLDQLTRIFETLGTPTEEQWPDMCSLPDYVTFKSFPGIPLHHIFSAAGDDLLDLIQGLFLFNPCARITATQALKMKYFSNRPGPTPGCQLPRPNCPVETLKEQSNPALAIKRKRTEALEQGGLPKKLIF
Chain of CDK7/Cyclin H/MAT1 complex (P51946 whole entry partner, species assumed): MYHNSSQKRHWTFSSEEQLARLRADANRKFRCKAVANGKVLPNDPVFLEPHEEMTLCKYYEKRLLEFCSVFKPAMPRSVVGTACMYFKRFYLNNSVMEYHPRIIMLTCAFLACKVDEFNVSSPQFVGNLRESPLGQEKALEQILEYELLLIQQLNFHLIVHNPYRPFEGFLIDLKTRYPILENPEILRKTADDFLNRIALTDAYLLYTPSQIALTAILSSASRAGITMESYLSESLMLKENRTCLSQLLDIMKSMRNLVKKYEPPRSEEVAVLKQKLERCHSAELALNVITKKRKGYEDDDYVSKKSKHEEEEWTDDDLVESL
Chain of CDK7/Cyclin H/MAT1 complex (P51948 whole entry partner, species assumed): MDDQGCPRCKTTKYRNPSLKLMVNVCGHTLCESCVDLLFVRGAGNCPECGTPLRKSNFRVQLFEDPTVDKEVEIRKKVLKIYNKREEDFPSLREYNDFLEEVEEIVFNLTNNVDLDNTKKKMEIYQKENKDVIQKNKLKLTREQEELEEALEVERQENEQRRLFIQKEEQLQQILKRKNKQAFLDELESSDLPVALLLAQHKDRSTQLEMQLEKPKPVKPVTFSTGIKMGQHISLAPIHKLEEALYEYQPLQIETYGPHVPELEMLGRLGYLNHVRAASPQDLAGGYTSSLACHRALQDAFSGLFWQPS

In assay [5] the target is CDK2/Cyclin E1 complex (Homo sapiens, UniProt P24941). Kind of assay: CDK2 inhibition assay (Caliper/LabChip EZ Reader kinase assay). It is filed as biochemical. The conditions noted are these: Table 1; CDK2/Cyclin E1 0.5 nM, ATP 2 mM, 35 min at 27° C. The gist of the method: as §1
In assay [6] the test system is HCC70 cells. Kind of assay: Inhibition of proliferation of HCC70 cells (CyQUANT Direct Cell Proliferation Assay, 72 hour). Particulars: Homo sapiens, HCC70, 72 h, read-out: Inhibition of Proliferation of HCC70 Cells (calculated IC50). It is filed as cell-based, human. How it is done:
HCC70 cells are a cell line derived from human triple negative breast cancer. […] Known CDK inhibitors dinaciclib or N-((1S,3R)-3-((5-chloro-4-(1H-indol-3-yl) pyrimidin-2-yl)amino)cyclohexyl)-5-((E)-4-(dimethylamino)but-2-enamido)picolinamide and triptolide were used as positive controls. […] The cells were cultured at 37° C. in a humidified chamber in the presence of 5% CO2. Proliferation assays were conducted over a 72 hour time period. CyQUANT® Direct Cell Proliferation Assay (Life Technologies, Chicago, IL USA) was used to assess the anti-proliferative effects of the compounds following manufacturer's directions and utilizing the reagents supplied with the CyQUANT® Direct Cell kit.

T1 sequence (Q9NYV4 686-1082, species assumed): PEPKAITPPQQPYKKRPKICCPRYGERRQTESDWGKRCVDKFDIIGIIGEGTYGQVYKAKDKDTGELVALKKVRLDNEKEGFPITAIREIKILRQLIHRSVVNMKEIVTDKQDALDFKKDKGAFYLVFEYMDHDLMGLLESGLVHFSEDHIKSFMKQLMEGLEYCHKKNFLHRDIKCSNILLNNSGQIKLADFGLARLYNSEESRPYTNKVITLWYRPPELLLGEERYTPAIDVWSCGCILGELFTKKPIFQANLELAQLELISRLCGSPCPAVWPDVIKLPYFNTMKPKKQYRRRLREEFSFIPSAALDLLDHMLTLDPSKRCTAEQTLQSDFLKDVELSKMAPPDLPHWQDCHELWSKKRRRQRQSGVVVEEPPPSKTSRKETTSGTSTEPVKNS
T1 sequence (O75909 whole entry partner, species assumed, the tested form may be a part): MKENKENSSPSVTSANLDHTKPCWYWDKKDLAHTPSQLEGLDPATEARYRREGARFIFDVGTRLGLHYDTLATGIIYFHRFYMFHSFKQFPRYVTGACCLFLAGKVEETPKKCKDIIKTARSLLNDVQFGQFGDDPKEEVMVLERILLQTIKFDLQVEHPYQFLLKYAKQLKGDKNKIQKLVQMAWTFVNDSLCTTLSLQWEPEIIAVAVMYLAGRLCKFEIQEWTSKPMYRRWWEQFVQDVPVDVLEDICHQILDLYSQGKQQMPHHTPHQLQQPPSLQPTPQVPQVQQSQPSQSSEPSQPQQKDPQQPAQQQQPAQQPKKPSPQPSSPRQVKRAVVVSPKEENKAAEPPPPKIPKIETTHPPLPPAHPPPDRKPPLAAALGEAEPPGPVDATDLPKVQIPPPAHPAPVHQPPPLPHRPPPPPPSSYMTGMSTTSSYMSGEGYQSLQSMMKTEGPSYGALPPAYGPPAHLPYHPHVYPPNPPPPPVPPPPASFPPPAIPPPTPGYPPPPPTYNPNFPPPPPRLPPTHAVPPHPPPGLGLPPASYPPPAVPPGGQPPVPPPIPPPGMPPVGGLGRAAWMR

In the case of `N#Cc1cc(-c2ccc3c(-c4nc(N[C@H]5CCCNC5)ncc4C(F)(F)F)c[nH]c3c2)c[nH]1` [Compound 233, 4-[3-[2-[[(3S)-3-piperidyl]amino]-5-(trifluoromethyl)pyrimidin-4-yl]-1H-indol-6-yl]-1H-pyrrole-2-carbonitrile], the IC50 in assay [1] (Homo sapiens, A673, 72 h) is 20 to 200 nM; in assay [2] it was 200 to 5000 nM; in assay [3] it was 200 to 5000 nM; in assay [4] it was less than 20 nM; in assay [5], 200 to 5000 nM.

In the case of `Cc1nc(-c2ccc3c(-c4nc(N[C@H]5CCCNC5)ncc4C(F)(F)F)c[nH]c3c2)n[nH]1` [Compound 235], the IC50 in assay [1] (Homo sapiens, A673, 72 h) is 200 to 5000 nM; in assay [2], 200 to 5000 nM; in assay [3] it was 200 to 5000 nM; in assay [4], less than 20 nM; in assay [5], 200 to 5000 nM.

For `FC1(F)CNC[C@@H](Nc2ncc(C(F)(F)F)c(-c3c[nH]c4ccccc34)n2)C1` [Compound 236, N-[(3S)-5,5-difluoro-3-piperidyl]-4-(1H-indol-3-yl)-5-(trifluoromethyl) pyrimidin-2-amine], the IC50 in assay [1] (Homo sapiens, A673, 72 h) is 20 to 200 nM; in assay [2], 200 to 5000 nM; in assay [3], 200 to 5000 nM; in assay [4] it was less than 20 nM; in assay [5] it was 200 to 5000 nM.

As to `CC(C)(O)CCc1ccc2c(-c3nc(N[C@H]4CCCNC4)ncc3C(F)(F)F)c[nH]c2c1` [Compound 242, 2-methyl-4-[3-[2-[[(3S)-3-piperidyl]amino]-5-(trifluoromethyl)pyrimidin-4-yl]-1H-indol-6-yl] butan-2-ol], the IC50 is 20 to 200 nM in assay [1] (Homo sapiens, A673, 72 h); 200 to 5000 nM in assay [2]; 200 to 5000 nM in assay [3]; 20 to 200 nM in assay [4]; more than 5000 nM in assay [5].

On to `CC1(C)CNC[C@@H](Nc2ncc(C(F)(F)F)c(-c3c[nH]c4ccccc34)n2)C1` [Compound 243, N-[(3S)-5,5-dimethyl-3-piperidyl]-4-(1H-indol-3-yl)-5-(trifluoromethyl) pyrimidin-2-amine], for which the IC50 in assay [1] (Homo sapiens, A673, 72 h) is less than 20 nM; in assay [2] it was 20 to 200 nM; in assay [3] it was 200 to 5000 nM; in assay [4], less than 20 nM; in assay [5], 200 to 5000 nM.

Regarding `Cc1nc(-c2ccc3c(-c4nc(N[C@H]5CCCNC5)ncc4C(F)(F)F)c[nH]c3c2)nn1C` [Compound 245, 4-[6-(1,5-dimethyl-1,2,4-triazol-3-yl)-1H-indol-3-yl]-N-[(3S)-3-piperidyl]-5-(trifluoromethyl) pyrimidin-2-amine], the IC50 was 20 to 200 nM in assay [1] (Homo sapiens, A673, 72 h); 200 to 5000 nM in assay [2]; more than 5000 nM in assay [3]; less than 20 nM in assay [4]; 200 to 5000 nM in assay [5].

For the compound `COC(C)c1cnc(N[C@H]2CCCNC2)nc1-c1c[nH]c2ccccc12` (stereo partly shown) [Compound 247], the IC50 in assay [1] (Homo sapiens, A673, 72 h) is 200 to 5000 nM; in assay [2], more than 5000 nM; in assay [3], more than 5000 nM; in assay [4] it was 200 to 5000 nM; in assay [5], more than 5000 nM.

With `N#Cc1cn(-c2ccc3c(-c4nc(NC5CCCNC5)ncc4C(F)(F)F)c[nH]c3c2)cn1` (stereo not shown) [Compound 249], the IC50 is 20 to 200 nM in assay [1] (Homo sapiens, A673, 72 h); 200 to 5000 nM in assay [2]; more than 5000 nM in assay [3]; less than 20 nM in assay [4]; more than 5000 nM in assay [5].

Consider `CNC(=O)[C@@H]1CNC[C@@H](Nc2ncc(C(F)(F)F)c(-c3c[nH]c4ccccc34)n2)C1` [Compound 256], for which the IC50 is 200 to 5000 nM in assay [1]; 200 to 5000 nM in assay [2]; more than 5000 nM in assay [3]; 20 to 200 nM in assay [4]; 200 to 5000 nM in assay [5].

Regarding `N#Cc1ccc2c(-c3nc(N[C@H]4CCCNC4)ncc3C(F)(F)F)c[nH]c2c1C#N` [Compound 258, 3-[2-[[(3S)-3-piperidyl]amino]-5-(trifluoromethyl)pyrimidin-4-yl]-1H-indole-6,7-dicarbonitrile], the IC50 was 20 to 200 nM in assay [1] (Homo sapiens, A673, 72 h); 200 to 5000 nM in assay [2]; 200 to 5000 nM in assay [3]; less than 20 nM in assay [4]; 200 to 5000 nM in assay [5].

Take `CC(C)C1CCC(Nc2ncc(C(F)(F)F)c(-c3c[nH]c4ccccc34)n2)CN1` (stereo not shown) [Compound 260]: the IC50 in assay [1] (Homo sapiens, A673, 72 h) was 200 to 5000 nM; in assay [2], 200 to 5000 nM; in assay [3] it was more than 5000 nM; in assay [4] it was 200 to 5000 nM; in assay [5], more than 5000 nM.

Turning to `CCc1cnc(N[C@H]2CCCNC2)nc1-c1n[nH]c2ncccc12` [Compound 262, 5-ethyl-N-[(3S)-3-piperidyl]-4-(1H-pyrazolo[3,4-b]pyridin-3-yl)pyrimidin-2-amine], the IC50 in assay [1] (Homo sapiens, A673, 72 h) is 20 to 200 nM; in assay [2], 200 to 5000 nM; in assay [3] it was 200 to 5000 nM; in assay [4], less than 20 nM; in assay [5] it was 200 to 5000 nM.

`CS(=O)(=O)c1cccn2c([C@H]3CCC[C@@H](Nc4ncc(C(F)(F)F)c(-c5c[nH]c6ccccc56)n4)C3)nnc12` [Compound 265, 4-(1H-indol-3-yl)-N-[(1R,3S)-3-(8-methylsulfonyl-[1,2,4]triazolo [4,3-a]pyridin-3-yl)cyclohexyl]-5-(trifluoromethyl) pyrimidin-2-amin]: the IC50 in assay [1] (Homo sapiens, A673, 72 h) is 20 to 200 nM; in assay [2], 200 to 5000 nM; in assay [3], 200 to 5000 nM; in assay [4], 200 to 5000 nM; in assay [5], 200 to 5000 nM.

Regarding `FC(F)(F)c1cnc(N[C@H]2CNC[C@@H](c3nnc4ccccn34)C2)nc1-c1c[nH]c2ccccc12` [Compound 268], the IC50 is 200 to 5000 nM in assay [1]; 200 to 5000 nM in assay [2]; more than 5000 nM in assay [3]; 200 to 5000 nM in assay [4]; more than 5000 nM in assay [5].

Regarding `CCc1cnc(N[C@H]2CCCNC2)nc1-c1c[nH]c2cc(S(C)(=O)=O)ccc12` [Compound 271], the IC50 in assay [1] (Homo sapiens, A673, 72 h) is 200 to 5000 nM; in assay [2], more than 5000 nM; in assay [3] it was more than 5000 nM; in assay [4], 20 to 200 nM; in assay [5] it was more than 5000 nM.

As to `CSc1cnc(N[C@H]2CCCNC2)nc1-c1c[nH]c2cc(C#N)ccc12` [Compound 272, 3-[5-methylsulfanyl-2-[[(3S)-3-piperidyl]amino]pyrimidin-4-yl]-1H-indole-6-carbonitrile], the IC50 in assay [1] (Homo sapiens, A673, 72 h) was 20 to 200 nM; in assay [2], 200 to 5000 nM; in assay [3] it was 200 to 5000 nM; in assay [4] it was less than 20 nM; in assay [5], 200 to 5000 nM.

Consider `CCS(=O)(=O)c1ccc2c(-c3nc(N[C@H]4CCCNC4)ncc3C(F)(F)F)c[nH]c2c1` [Compound 274], for which the IC50 in assay [1] (Homo sapiens, A673, 72 h) is 20 to 200 nM; in assay [2], 200 to 5000 nM; in assay [3], 200 to 5000 nM; in assay [4], less than 20 nM; in assay [5] it was 200 to 5000 nM.

With `CCc1cnc(N[C@H]2CCCNC2)nc1-c1n[nH]c2cc(C#N)ccc12` [Compound 275, (S)-3-(5-ethyl-2-(piperidin-3-ylamino)pyrimidin-4-yl)-1H-indazole-6-carbonitrile], the IC50 in assay [1] (Homo sapiens, A673, 72 h) was 20 to 200 nM; in assay [2], 200 to 5000 nM; in assay [3], 200 to 5000 nM; in assay [4] it was less than 20 nM; in assay [5], 200 to 5000 nM.

`CC(C)c1cnc(N[C@H]2CCCNC2)nc1-c1n[nH]c2nc(C#N)ccc12` [Compound 276, (S)-3-(5-isopropyl-2-(piperidin-3-ylamino)pyrimidin-4-yl)-1H-pyrazolo[3,4-b]pyridine-6-carbonitrile]: the IC50 in assay [1] (Homo sapiens, A673, 72 h) is 200 to 5000 nM; in assay [2], more than 5000 nM; in assay [3] it was more than 5000 nM; in assay [4] it was 20 to 200 nM; in assay [5], more than 5000 nM.

On to `FC(F)(F)c1cnc(N[C@H]2CCCNC2)nc1-c1c[nH]c2cc(-c3cc[nH]n3)ccc12` [Compound 291, N-[(3S)-3-piperidyl]-4-[6-(1H-pyrazol-3-yl)-1H-indol-3-yl]-5-(trifluoromethyl) pyrimidin-2-amine], for which the IC50 is 20 to 200 nM in assay [1]; 200 to 5000 nM in assay [2]; 200 to 5000 nM in assay [3]; 20 to 200 nM in assay [4]; more than 5000 nM in assay [5].

For `Nc1nc2c(-c3ccc4c(-c5nc(N[C@H]6CCCNC6)ncc5C(F)(F)F)c[nH]c4c3)cccc2s1` [Compound 312], the IC50 in assay [6] is 100 to 1000 nM; in assay [2], 200 to 5000 nM; in assay [4], 20 to 200 nM.
